Legend:
Format in all cases: in vivo
[1] = system: common ragweed (Ambrosia artemisizfolia L., AMBEL); experiment: Pre-emerge test, greenhouse herbicide activity screening; conditions: rated 14 days after application, 0 = no damage, 100 = complete death
Outline: (§1)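 Plants grown in 10 cm pots of sandy loam mix received acetone-dissolved compounds through a moving flat-fan nozzle. Doses ranged from 15 to 1000 g ai/ha. Pre-emerge pots were seeded one day earlier, post-emerge pots 8–21 days earlier. Fourteen days on, each pot was graded 0–100 for damage.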

[2] = system: ivyleaf morningglory (Ipomoea hederacea, IPOHE); experiment: as above; conditions: rated 14 days after application, 0 = no damage, 100 = complete death
Outline: as §1

[3] = system: lambsquarters (Chenopodium album, CHEAL); experiment: as above; conditions: rated 14 days after application, 0 = no damage, 100 = complete death
Outline: as §1

[4] = system: velvetleaf (Abutilon theophrasti, ABUTH); experiment: as above; conditions: rated 14 days after application, 0 = no damage, 100 = complete death
Outline: as §1

[5] = system: barnyardgrass (Echinochloa crus-galli, ECHCG); experiment: as above; conditions: rated 14 days after application, 0 = no damage, 100 = complete death
Outline: as §1

[6] = system: green foxtail (Setaria viridis, SETVI); experiment: as above; conditions: rated 14 days after application, 0 = no damage, 100 = complete death
Outline: as §1

[7] = system: sicklepod (Cassia obtusifolia, CASOB); experiment: as above; conditions: rated 14 days after application, 0 = no damage, 100 = complete death
Outline: as §1

[8] = system: johnsongrass (Sorghum halepense, SORHA); experiment: as above; conditions: rated 14 days after application, 0 = no damage, 100 = complete death
Outline: as §1

[9] = system: large crabgrass (Digitaria sanguinalis, DIGSA); experiment: as above; conditions: rated 14 days after application, 0 = no damage, 100 = complete death
Outline: as §1

[10] = system: redroot pigweed (Amaranthus retroflexus, AMARE); experiment: as above; conditions: rated 14 days after application, 0 = no damage, 100 = complete death
Outline: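 Sandy loam pots; pre-emerge: sown 1 d pre-spray, surface-watered after, then bottom-watered. Post-emerge: sown 8–21 d before, 2–3 leaf stage, + 0.25% v/v NIS, bottom-watered. Acetone, 187 l/ha track spray, 15–1000 g ai/ha. 0–100 injury score, day 14.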

[11] = system: common ragweed (Ambrosia artemisizfolia L., AMBEL); experiment: Post-emerge test, greenhouse herbicide activity screening; conditions: post-emerge, 14 days after application, rating scale 0-100
Outline: (§2)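 Rating: 0–100 visual injury, 14 DAA. Application: acetone, 187 l/ha, 15–1000 g ai/ha, flat-fan track sprayer with nozzle 40–45 cm above soil or canopy. Post-emerge runs used 0.25% v/v surfactant on 2–3 leaf plants.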

[12] = system: ivyleaf morningglory (Ipomoea hederacea, IPOHE); experiment: as above; conditions: post-emerge, 14 days after application, rating scale 0-100
Outline: as §2

[13] = system: lambsquarters (Chenopodium album, CHEAL); experiment: as above; conditions: post-emerge, 14 days after application, rating scale 0-100
Outline: as §2

[14] = system: velvetleaf (Abutilon theophrasti, ABUTH); experiment: as above; conditions: post-emerge, 14 days after application, rating scale 0-100
Outline: as §2

[15] = system: barnyardgrass (Echinochloa crus-galli, ECHCG); experiment: as above; conditions: post-emerge, 14 days after application, rating scale 0-100
Outline: as §2

[16] = system: redroot pigweed (Amaranthus retroflexus, AMARE); experiment: as above; conditions: post-emerge, 14 days after application, rating scale 0-100
Outline: as §2

[17] = system: green foxtail (Setaria viridis, SETVI); experiment: as above; conditions: post-emerge, 14 days after application, rating scale 0-100
Outline: as §2

[18] = system: sicklepod (Cassia obtusifolia, CASOB); experiment: as above; conditions: post-emerge, 14 days after application, rating scale 0-100
Outline: as §2

[19] = system: johnsongrass (Sorghum halepense, SORHA); experiment: as above; conditions: post-emerge, 14 days after application, rating scale 0-100
Outline: as §2

[20] = system: large crabgrass (Digitaria sanguinalis, DIGSA); experiment: as above; conditions: post-emerge, 14 days after application, rating scale 0-100
Outline: as §2

[21] = system: upland rice (Oryza sp., var. Tebonnet, RICE); experiment: Post-emerge test, crop safety; conditions: post-emerge, 14 days after application, rating scale 0-100
Outline: (§3)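 Each test used a mechanized track sprayer delivering 187 l/ha of acetone solution at 15–1000 g ai/ha. Post-emerge foliage at 2–3 leaves was treated with added 0.25% v/v non-ionic surfactant and bottom-watered only. Injury was assessed on day 14, where 100 means total kill.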

[22] = system: field corn (Zea mays L., var. Dekalb 535, CORN); experiment: Post-emerge test, crop safety; conditions: post-emerge, 14 days after application, rating scale 0-100
Outline: as §3

[23] = system: upland rice (Oryza sp., var. Tebonnet, RICE); experiment: Pre-emerge test, crop safety; conditions: rated 14 days after application, 0 = no damage, 100 = complete death
Outline: (§4)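 Herbicidal damage is scored 0 (none) to 100 (complete plant death) two weeks after a simulated field spray. Rates span 15–1000 g ai/ha, delivered in acetone at 187 l/ha. For post-emergence treatments, plants have 2–3 leaves and the spray carries 0.25% v/v non-ionic surfactant.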

[24] = system: field corn (Zea mays L., var. Dekalb 535, CORN); experiment: Pre-emerge test, crop safety; conditions: rated 14 days after application, 0 = no damage, 100 = complete death
Outline: as §4

COc1c(Cl)cc(F)c(-n2c(=O)cc(C(F)(F)F)n(C)c2=O)c1NC(=O)c1ccc(F)cc1F [Compound 2-42, 3-[4-chloro-2-(2,4difluorobenzoyl)amino-6-fluoro-3-methoxyphenyl]-1-methyl-6-trifluoromethyl-2,4(1H 3H)-pyrimidinedione]
99: Pre-emerge phytotoxicity rating (0-100), crop damage, RICE ([23]; 250 g ai/ha)
85: Pre-emerge phytotoxicity rating (0-100), crop damage, CORN ([24]; 63 g ai/ha)
80: Pre-emerge Herbicidal Activity, phytotoxicity rating (0-100), CASOB ([7]; 63 g ai/ha) | phytotoxicity rating ECHCG ([15]; 250 g ai/ha) | phytotoxicity rating SETVI ([17]; 250 g ai/ha)
90: phytotoxicity rating CHEAL ([13]; 63 g ai/ha) | phytotoxicity rating RICE ([21]; 250 g ai/ha) | Pre-emerge phytotoxicity rating (0-100), crop damage, RICE ([23]; 63 g ai/ha)
98: Pre-emerge phytotoxicity rating (0-100), crop damage, CORN ([24]; 250 g ai/ha)
100: Pre-emerge Herbicidal Activity, phytotoxicity rating (0-100), AMBEL ([1]; 63 g ai/ha) | Pre-emerge Herbicidal Activity, phytotoxicity rating (0-100), AMBEL ([1]; 250 g ai/ha) | Pre-emerge Herbicidal Activity, phytotoxicity rating (0-100), IPOHE ([2]; 63 g ai/ha) | Pre-emerge Herbicidal Activity, phytotoxicity rating (0-100), IPOHE ([2]; 250 g ai/ha) | Pre-emerge Herbicidal Activity, phytotoxicity rating (0-100), CHEAL ([3]; 63 g ai/ha) | Pre-emerge Herbicidal Activity, phytotoxicity rating (0-100), CHEAL ([3]; 250 g ai/ha) | Pre-emerge Herbicidal Activity, phytotoxicity rating (0-100), ABUTH ([4]; 63 g ai/ha) | Pre-emerge Herbicidal Activity, phytotoxicity rating (0-100), ABUTH ([4]; 250 g ai/ha) | Pre-emerge Herbicidal Activity, phytotoxicity rating (0-100), ECHCG ([5]; 63 g ai/ha) | Pre-emerge Herbicidal Activity, phytotoxicity rating (0-100), ECHCG ([5]; 250 g ai/ha) | Pre-emerge Herbicidal Activity, phytotoxicity rating (0-100), SETVI ([6]; 63 g ai/ha) | Pre-emerge Herbicidal Activity, phytotoxicity rating (0-100), SETVI ([6]; 250 g ai/ha) | Pre-emerge Herbicidal Activity, phytotoxicity rating (0-100), CASOB ([7]; 250 g ai/ha) | Pre-emerge Herbicidal Activity, phytotoxicity rating (0-100), SORHA ([8]; 250 g ai/ha) | Pre-emerge Herbicidal Activity, phytotoxicity rating (0-100), DIGSA ([9]; 63 g ai/ha) | Pre-emerge Herbicidal Activity, phytotoxicity rating (0-100), DIGSA ([9]; 250 g ai/ha) | Pre-emerge Herbicidal Activity, phytotoxicity rating (0-100), AMARE ([10]; 63 g ai/ha) | Pre-emerge Herbicidal Activity, phytotoxicity rating (0-100), AMARE ([10]; 250 g ai/ha) | phytotoxicity rating IPOHE ([12]; 63 g ai/ha) | phytotoxicity rating IPOHE ([12]; 250 g ai/ha) | phytotoxicity rating CHEAL ([13]; 250 g ai/ha) | phytotoxicity rating ABUTH ([14]; 63 g ai/ha) | phytotoxicity rating ABUTH ([14]; 250 g ai/ha) | phytotoxicity rating AMARE ([16]; 250 g ai/ha) | phytotoxicity rating CASOB ([18]; 250 g ai/ha)
60: phytotoxicity rating RICE ([21]; 63 g ai/ha) | phytotoxicity rating CORN ([22]; 250 g ai/ha)
0: phytotoxicity rating DIGSA ([20]; 63 g ai/ha)
95: Pre-emerge Herbicidal Activity, phytotoxicity rating (0-100), SORHA ([8]; 63 g ai/ha) | phytotoxicity rating AMBEL ([11]; 250 g ai/ha) | phytotoxicity rating AMARE ([16]; 63 g ai/ha) | phytotoxicity rating SORHA ([19]; 250 g ai/ha)
65: phytotoxicity rating CASOB ([18]; 63 g ai/ha)
10: phytotoxicity rating SORHA ([19]; 63 g ai/ha) | phytotoxicity rating CORN ([22]; 63 g ai/ha)
30: phytotoxicity rating ECHCG ([15]; 63 g ai/ha) | phytotoxicity rating DIGSA ([20]; 250 g ai/ha)
50: phytotoxicity rating SETVI ([17]; 63 g ai/ha)
70: phytotoxicity rating AMBEL ([11]; 63 g ai/ha)
